Where two headings read alike, the source gives them in different places.
What was measured:
[1] = biological target: CDK2 (Homo sapiens, UniProt P24941); test: Cyclin dependent protein kinase substrate phosphorylation assay, CDK2; type: biochemical
Description: CDK1 and CDK2 were both expressed utilizing a baculovirus expression system and were partially purified to comprise 20-80% of total protein, with no detectable competing reactions present. […] Reactions were terminated with 0.2-2 volumes of either 20% acetic acid or 50-100 mM EDTA buffered to pH 7 (substrate consumption<20%). The buffer employed in enzyme assays was either 30 mM HEPES 7.4 containing 0.15 M NaCl and 5% DMSO, the buffer 50 mM MOPS 7.0 containing 0.15 M NaCl and 5% DMSO, or the buffer 100 mM HEPES pH 7.5 containing 0.1 mg /mL BSA and 5% DMSO. Inhibitors were diluted in 100% DMSO prior to addition into the assay. Detection of peptide phosphorylation was accomplished by scintillation counting following either collection of peptide onto phosphocellulose filters (for reactions stopped with acetic acid), collection of peptide in wells of 96 well plates coated with Streptavidin (Pierce) (reactions were stopped with EDTA), or addition of Avidin coated Scintillant impregnated beads (Scintillation Proximity Assays from Amersham, reactions were stopped with EDTA).

[2] = system: MDA MB468; test: MTT assay, MDA MB468; type: cell-based, human; details: read-out: MTT MDA MB468 IC50
Description: (§1) Compounds are tested for their ability to inhibit cell proliferation and cell viability. The metabolic conversion of 3-(4,5-dimethylthiazol-2-yl)-2,5-diphenyltetrazolium bromide (MTT, Sigma #M2128) to a reduced form is a commonly used measure of cellular viability. Following is the procedure:
(§2) Cells are maintained in 75 cm^2 tissue culture flasks until ready for use. The cells are grown and plated for the assay in Dulbecco's modified Eagle's media (DMEM) containing 10% fetal bovine serum. For example, the following cell lines can be used: a) human foreskin fibroblasts (HFF); b) HT29 (human colon carcinoma cell line); c)MDA-MB-468 (human breast carcinoma cell line); d) RKO (human colon adenocarcinoma cell line); e) SW620 (human colon carcinoma cell line); f) A549 (human lung carcinoma cell line); and g) MIA PACA (human pancreatic carcinoma cell line). Cells are maintained at 37° C. in 10% CO2, 90% humidified air. Cells are plated in 96-well tissue culture plates at the densities listed below. 100 μL of cell suspension is added to each well of the 96-well plate except the top row of the plate which contains no cells and serves as a reference for the spectrophotometer.
(§3) Cells are incubated overnight in DMEM containing 10% fetal bovine serum at 37° C. in 10% CO2, 90% humidified air prior to dosing. […] Compounds with solubilities of less than 30 μM are dosed at the highest soluble concentration. Stock solutions of compounds are made in 100% dimethyl sulfoxide (DMSO). Stock solutions are diluted in DMEM containing 100 μg/ml gentamicin and 0.3 to 0.6% DMSO at the twice the highest concentration to be placed on the cells. If compounds have been dissolved in DMSO the final concentration of DMSO on the cells is kept below 0.3%. Three-fold serial dilutions are performed on each compound to prepare 10 concentrations of the compound for dosing. 100 μl of diluted compound is added to the 100 μl of media currently on the dish. For each concentration of compound, 2-4 replicate wells are prepared.
(§4) Cells are returned to incubator and allowed to proliferate in the presence of compound for 72 h before addition of MTT. MTT is prepared in phosphate buffered saline (Irvine Scientific #9240) at a concentration of 2 mg/ml. 50 μl per well of MTT solution is added to the 200 μl of media to yield a final concentration of 0.4 mg/ml and plates are returned to the incubator for 4 h. After 4 h incubation the media, compound and MTT mixture is aspirated from the plates and 100 μl of 100% DMSO is added to each well in addition to 25 μl of Sorenson's Buffer (0.1M glycine, 0.1M NaCl, pH 10.5). Quantitation of metabolic reduction of MTT in each plate is performed by reading optical density at 570 nm wavelength on a Molecular Devices UVmax microplate reader. Growth inhibition curves and 50% inhibitory concentrations are determined using Microsoft Excel.

[3] = biological target: CDK1 (Homo sapiens, UniProt P06493); test: Cyclin dependent protein kinase substrate phosphorylation assay, CDK1; type: biochemical; details: read-out: CDK1 IC50
Description: Cyclin dependent protein kinase assays utilized the peptides Biotin-aminohexyl-[…] and Biotin-aminohexyl-[…]-NH2 as phosphoryl group acceptors. CDK1 and CDK2 were both expressed utilizing a baculovirus expression system and were partially purified to comprise 20-80% of total protein, with no detectable competing reactions present. Typically, assays were performed by incubating either enzyme (0.2-10 nM), with and without inhibitor, one of the two peptide substrates ([…]), [γ-^32P]ATP ([…]), and 10-20 mM Mg^2+ for periods of time generally within the range 10-120 min. Reactions were terminated with 0.2-2 volumes of either 20% acetic acid or 50-100 mM EDTA buffered to pH 7 (substrate consumption<20%). The buffer employed in enzyme assays was either 30 mM HEPES 7.4 containing 0.15 M NaCl and 5% DMSO, the buffer 50 mM MOPS 7.0 containing 0.15 M NaCl and 5% DMSO, or the buffer 100 mM HEPES pH 7.5 containing 0.1 mg /mL BSA and 5% DMSO. Inhibitors were diluted in 100% DMSO prior to addition into the assay. Detection of peptide phosphorylation was accomplished by scintillation counting following either collection of peptide onto phosphocellulose filters (for reactions stopped with acetic acid), collection of peptide in wells of 96 well plates coated with Streptavidin (Pierce) (reactions were stopped with EDTA), or addition of Avidin coated Scintillant impregnated beads (Scintillation Proximity Assays from Amersham, reactions were stopped with EDTA).

[4] = system: RKO colon adenocarcinoma cells; test: MTT assay, RKO; type: cell-based, human; details: 72 h, read-out: MTT RKO IC50
Description: as §1, §2, §3, §4
(§5) HDF are normal diploid fibroblast cells. RKO are colon adenocarcinoma cells and MES/SA are […].

[5] = system: HDF normal diploid fibroblast cells; test: FACS assay (cell death by flow cytometry), HDF; type: cell-based, human; details: 50% cell death, 72 h; read-out: FACS HDF IC50
Description: (§6) These assays allow determination of both cell death and changes in cell cycle profile in cells following treatment of the compound. The assay is performend as follows:
(§7) 1. Cells are incubated in DMEM to which 10% FCS has been added in a humidified incubator at 37° C. and 5% by volume of CO2 in air. The cells are innoculated in 6-well plates at a density of 0.5-5×10^5 cells per well.
(§8) 2. The test compound is added in serial dilutions 24-36 h after plating in 0.5% DMSO. The plates are then incubated a further 72 h in the presence of the compound. During this time, cells in control cultures undergo at least three cell divisions.
(§9) 3. After incubation, the media is collected and cells are harvested by trypsinization. The cells and media are pooled and pelleted by centrifugation.
(§10) 4. The cell pellet is fixed in a final volume of 3 mL of 50% ice cold MeOH and incubated for a minimum of 30 min at −20° C.
(§11) 5. The cells are pelleted by centrifugation and resuspended in 0.5 mL PBS containing 1%FCS, […] Propidium Iodide (PI) and 5 mg/mL RNase A and incubated 30 min at 37° C. in the dark.
(§12) 6. The samples are analysed by flow cytometry using the relative incorporation of PI as a measure of DNA content of each cell. The % Dead cells is recorded as % of events with less than 2N DNA.
as §5

[6] = system: MES/SA ovarian carcinoma cells; test: FACS assay (cell death by flow cytometry), MES/SA; type: cell-based; details: 50% cell death, 72 h, read-out: FACS MES/SA IC50
Description: as §6, §7, §8, §9, §10, §11, §12, §5

[7] = system: HDF normal diploid fibroblast cells; test: MTT assay, HDF; type: cell-based, human; details: 72 h; read-out: MTT HDF IC50
Description: as §1
as §2, with “100 μL of cell suspension is added to each well of the 96-well plate except the top row of the plate which contains no cells and serves as a reference for the spectrophotometer.” left out
Cells are returned to incubator and allowed to proliferate in the presence of compound for 72 h before addition of MTT. […] Quantitation of metabolic reduction of MTT in each plate is performed by reading optical density at 570 nm wavelength on a Molecular Devices UVmax microplate reader. Growth inhibition curves and 50% inhibitory concentrations are determined using Microsoft Excel. […]

[8] = system: human diploid fibroblasts (HDF-3); test: G1-S progression assay (BrdU incorporation); type: cell-based; details: read-out: G1/S Chkpt IC50
Description: This assay is designed to determine the ability of compounds to inhibit progression of cells from G1 into S-phase. […] The protocol is as follows:
(1) Grow human diploid fibroblasts (HDF-3) in 100 mm tissue culture dish to confluency. (2) Plate 6-7×10^3 cells/well in a 96 well plate in 100 μl of DMEM. (3) After 16-17 h add various dilutions of test compounds (0.045-100 μM). Dilute compound in DMEM containing DMSO and add 100 μl to each well so that the DMSO conc. is 0.6-0.8% in 200 μl final volume. (4) Two h after addition of compound, add 20 ul of 100 μM BrdU (final conc. 10 μM) Make 100 μM solution in DMEM from 10 mM stock solution. (5) After 4 h, add 200 μl PBS to each well and remove the contents of the wells by inverting the plate and soaking on to the paper towel. Repeat the washing step three times, with 400 ul PBS each time. (6) Fix the cells and denature the DNA by adding 200 μl fixation/denaturation solution to each well for 30-40 min. (7) Remove the fixation/denaturation solution by tapping the plate on the paper towel and add 75 ul of anti BrdU peroxidase antibody to each well. (dilute the antibody to 0.1 U/mL from 15 U/mL stock in PBS containing 1% BSA, Fraction V). Incubate the plate O/N at 4° C. (8) Remove the antibody solution and wash wells four times with 400 μl of PBS. Let the wash solution stay for 3-4 min during each wash. (9) Drain the wells and add 100 μl of chemiluminiscence Elisa reagent (Prepare the reagent 15-20 min before use to bring it to rt by mixing 100 parts of reagent A with 1 part of reagent B). (10) Read the plate in a luminometer. Take 2-3 readings within 6-7 min. Perform the following controls:
Deoxybromouridine (BrdU), anti BrdU peroxidase antibodies, fixation/denaturation solution, chemiluminiscence reagent and BSA Fraction V, were obtained from Boehringer Mannheim. The 96-well white plate with clear bottom were purchased from Corning Costar Corporation. Dulbecco's Modified Eagle Medium containing high glucose, L-glutamine and pyridoxine HCl was obtained from GIBCO BRL.

[9] = system: RKO colon adenocarcinoma cells; test: FACS assay (cell death by flow cytometry), RKO; type: cell-based, human; details: 50% cell death, 72 h, read-out: FACS RKO IC50
Description: as §6, §7, §8, §9, §10, §11, §12, §5

Chain of CDK1 (P06493 whole entry, species assumed): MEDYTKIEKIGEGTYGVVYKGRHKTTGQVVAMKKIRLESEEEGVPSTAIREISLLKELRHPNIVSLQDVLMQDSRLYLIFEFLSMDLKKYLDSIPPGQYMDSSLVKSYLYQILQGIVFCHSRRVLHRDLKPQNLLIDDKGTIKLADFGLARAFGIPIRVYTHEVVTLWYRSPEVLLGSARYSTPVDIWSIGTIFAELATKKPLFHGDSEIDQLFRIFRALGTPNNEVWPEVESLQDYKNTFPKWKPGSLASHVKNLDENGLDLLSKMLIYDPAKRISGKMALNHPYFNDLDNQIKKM
Chain of CDK1 (P14635 whole entry partner, species assumed): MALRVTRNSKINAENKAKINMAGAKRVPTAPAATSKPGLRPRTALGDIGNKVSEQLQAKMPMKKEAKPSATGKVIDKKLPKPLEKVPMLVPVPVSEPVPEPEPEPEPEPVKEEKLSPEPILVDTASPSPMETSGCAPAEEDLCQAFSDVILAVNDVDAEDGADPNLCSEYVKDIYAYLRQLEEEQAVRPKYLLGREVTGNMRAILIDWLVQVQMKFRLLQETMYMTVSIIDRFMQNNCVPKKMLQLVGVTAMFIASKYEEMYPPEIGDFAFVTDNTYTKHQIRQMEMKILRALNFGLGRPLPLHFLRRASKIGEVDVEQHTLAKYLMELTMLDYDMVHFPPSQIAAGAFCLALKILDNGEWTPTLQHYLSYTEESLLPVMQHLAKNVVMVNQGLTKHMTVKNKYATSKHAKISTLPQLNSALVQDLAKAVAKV

CC(C)COC(=O)c1ccc2c(c1)C(=CNc1ccc(S(N)(=O)=O)cc1)C(=O)N2 [Example 103, 2-Oxo-3-(4-sulfamoyl-phenylamino-methylene)-2,3dihydro-1H-indole-5-carboxylic acid isobutyl ester]
IC50 [1]: 1 to 10 nM
IC50 ([2]; Homo sapiens, MDA-MB-468, 72 h): 1100 to 5000 nM
IC50 [3]: 11 to 50 nM
IC50 ([4]; Homo sapiens): 1100 to 5000 nM

NS(=O)(=O)c1ccc(NN=C2C(=O)Nc3ccc(-c4cnco4)cc32)cc1 [Example 36, 4-[1-(5-Oxazol-5-yl-2-oxo-1,2-dihydro-indol-3-ylidene)-hydrazino]-benzenesulfonamide]
IC50 [5]: > 5000 nM
IC50 ([2]; 72 h): 600 to 1000 nM
IC50 [6]: 100 to 500 nM
IC50 [7]: 1100 to 5000 nM
IC50 [8]: 600 to 1000 nM
IC50 [9]: 600 to 1000 nM
IC50 [4]: 600 to 1000 nM

COC(=O)c1ccc2c(c1)/C(=C/Nc1ccc(S(N)(=O)=O)cc1)C(=O)N2 [Example 27, 2-Oxo-3-(4-sulfamoyl-phenylamino-methylene)-2,3-dihydro-1H-indole-5-carboxylic acid methyl ester]
IC50 [3]: 11 to 50 nM

CCC(C)Cc1cccc2c1C(=NNc1ccc(S(N)(=O)=O)cc1)C(=O)N2 (centres unmarked) [Example 11, 4-{N′-[4-(2-methylbutyl)-2-oxo-1,2-dihydro-indol-3-ylidene]-hydrazino}-benzenesulfonamide]
IC50 [1]: 1 to 10 nM
IC50 [3]: 11 to 50 nM
IC50 ([8]; Homo sapiens, Fibroblast): 1100 to 5000 nM
IC50 ([9]; Homo sapiens): 1100 to 5000 nM

CN(C)S(=O)(=O)c1ccc(NC=C2C(=O)Nc3ccc(-c4cnco4)cc32)cc1 [Example 35, N,N-Dimethyl-4-[(5-oxazol-5-yl-2-oxo-1,2-dihydro-indol-3-ylidenemethyl)-amino]-benzenesulfonamide]
IC50 [1]: 1 to 10 nM
IC50 ([2]; Homo sapiens, MDA-MB-468, 72 h): > 5000 nM
IC50 [3]: 11 to 50 nM
IC50 ([6]; Homo sapiens, MES-SA): > 5000 nM
IC50 ([9]; Homo sapiens): 1100 to 5000 nM
IC50 ([4]; Homo sapiens): 1100 to 5000 nM

O=C1Nc2ccc3ncsc3c2C1=CNc1ccc2nn[nH]c2c1 [Example 101, 8-(3H-Benzotriazol-5-ylaminomethylene)-6,8-dihydro-1-thia-3,6-diaza-as-indacene-7-one]
IC50 [1]: 11 to 50 nM
IC50 ([2]; Homo sapiens, MDA-MB-468, 72 h): 1100 to 5000 nM
IC50 [3]: 51 to 100 nM
IC50 ([9]; Homo sapiens): > 5000 nM

Reference: patent US6541503B2, “Substituted oxindole derivatives as protein tyrosine kinase and as protein serine/threonine kinase inhibitors” (SmithKline Beecham Corporation, priority 1997, dated 2003)
